Data from PubChem BioAssay AID179 (DTP/NCI, 2004).
Where “and” joins values, the source holds several entries; their conditions need not be identical. Equal values may be shown once. Calls of active or inactive are those of the source.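 The calls were made as follows: active = compounds giving half or more protection of infected cells from virus-caused growth loss, again on retest; inactive = the rest.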

System: CEM cells HIV-1 protection, formazan growth assay
Test: NCI AIDS Antiviral Assay
Conditions: for IC50: measured here: growth of uninfected CEM cells
Summary of the method: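 CEM (human) cells, HIV-1 infected vs uninfected, 5-point dosing, formazan growth read-out. Retest threshold 50% protection.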

| Structure (SMILES) | outcome | EC50 [µM] | IC50 |
| --- | --- | --- | --- |
| Cc1c(C)c([N+](=O)[O-])c2c(c1N)C(=O)c1ccccc1C2=O | inactive | – | – |
| COc1ccc(/C(C)=N/NC(N)=S)c(OC)c1 | inactive | – | – |
| O=C(N/N=C/c1cc(S(=O)(=O)O)c2cccnc2c1O)C(=O)N/N=C/c1cc(S(=O)(=O)O)c2cccnc2c1O | – | > 200 | 41.7 µM |
| COc1ccc2c(c1)CCC1=C2CCS1(=O)=O | – | > 200 | > 200 µM |
| S=C1OC2CCCC[C@H]2O1 (stereo partly specified) | – | > 120 | > 120 µM |
| COC(=O)COc1ccc([As](=O)(O)O)cc1 | – | > 200 | > 200 µM |
| CC(=O)C(=Cc1ccc(Br)cc1)C(C)=O | – | > 51.3 | 27.5 µM |
| Cc1nc(N)nc(N)c1CCCCc1ccc(N)cc1 | inactive | – | – |
| O=C(Nc1ccccc1)c1cc(S(=O)(=O)NC2=NC(c3ccccc3)c3cc(Cl)ccc3N2)c(SSc2cc(Cl)c(C(=O)Nc3ccccc3)cc2S(=O)(=O)NC2=NC(c3ccccc3)c3cc(Cl)ccc3N2)cc1Cl (stereo unspecified) | – | > 200 | > 200 µM |
| Fc1cccc(C2SCc3nc4cc5ccccc5cc4n32)c1 (stereo unspecified) | – | > 200 | > 200 µM |
| C=C1CCOC2(C(O)C(C)(O)CO)NC(=O)C1(O)NC2=O (stereo unspecified) | inactive | – | – |
| O=S(=O)(/C=C/c1ccc(Cl)cc1Cl)Cc1ccccc1CS(=O)(=O)/C=C/c1ccc(Cl)cc1Cl | – | > 12.6 | > 12.6 µM |
| O=C(c1ccco1)N(C(=S)N1CCN(c2ccccc2)CC1)C1CCCCC1 | – | > 18.2 | 12.6 µM |
| Cc1cc(NS(=O)(=O)c2ccc(N=Nc3c(N)n(C)c(=O)n(C)c3=O)cc2)nc(C)n1 | – | > 200 | > 200 µM |
| CCC(=O)N1NC(=O)C(CC)(CC)C1=O | – | > 200 | > 200 µM |
| CN(C)C1=Nc2ccccc2C(=S)N2CSCC12 (stereo unspecified) | – | > 200 | 29.5 µM |
| O=C1CCC2CCOc3ccc(O)c1c32 (stereo unspecified) | inactive | – | – |
| CCOC(=O)Cn1sc2ncc([N+](=O)[O-])cc2c1=O | – | > 13.5 | 8.91 µM |
| O=C(Nc1ccc(Cl)cc1C(=O)O)c1ccc([N+](=O)[O-])cc1 | inactive | – | – |
| O=C(Nc1cc(Cl)c(Cl)cc1Cl)C(=O)C(C(=O)c1ccc(Cl)c(Cl)c1)C1OC(=O)c2ccccc21 (stereo unspecified) | – | > 45.7 | 22.4 µM |
| C/C(CC(=O)Nc1ccc([N+](=O)[O-])cc1)=N\NC(N)=O | – | > 468 | > 468 µM |
| CN1C/C(=C\c2ccccc2[N+](=O)[O-])C(=O)/C(=C/c2ccccc2[N+](=O)[O-])C1 | – | > 2 | 0.166 µM and 0.0871 µM |

| Structure (SMILES) | outcome | EC50 [µM] | IC50 |
| --- | --- | --- | --- |
| CC(C)OP(=O)(OC(C)C)/C(Cl)=N/Nc1ccc([N+](=O)[O-])cc1 | – | > 70.8 | > 70.8 µM |
| Cc1nc2ccccc2nc1CC(=O)C(=O)Nc1ccc(Cl)cc1Cl | – | 302 | 347 µM |
| COc1cccc(/C=N/[N-]C(=O)c2ccncc2)c1[O-].[Mn+2].[OH3+] | – | > 39.8 | 6.61 µM |
| Cc1ccccc1Nc1cn(COCc2ccccc2)c(=O)[nH]c1=O | – | > 200 | 42.7 µM |
| COc1ccc(C2=C(C#N)C(=O)OCCN2C)cc1 | – | > 200 | > 200 µM |
| CCCCCCCCCCNCCSSc1ccccc1 | – | > 200 | 4.27 µM |
| O=C1NC2C3CC(c4ccccc43)C12 (stereo unspecified) | – | > 832 | > 832 µM |
| CC12CCC(CC1=O)C2(C)CCC(N)=O (stereo unspecified) | – | > 200 | > 200 µM |
| O=C1CC2C3CC1C2C(=O)O3 (stereo unspecified) | – | > 200 | > 200 µM |
| CN(CC#N)C(=O)Cc1ccc([N+](=O)[O-])cc1 | – | > 200 | > 200 µM |
| CC(C)=CC1C(C(=O)N2CCCCCC2)C1(C)C (stereo unspecified) | – | > 200 | > 200 µM |
| S=C1NC2=C(COC/C2=C\c2cccc(Cl)c2)C(c2cccc(Cl)c2)N1 (stereo unspecified) | inactive | – | – |
| CCOc1ccc(NC(=O)C(=O)CC(=O)c2c[n+](=O)c3cc(C)c(C)cc3n2[O-])cc1 | – | > 8.51 | > 8.51 µM |
| NC(CSS(=O)(=O)O)=NCCCc1ccccc1 | – | > 200 | 110 µM |
| COc1cc2c(cc1OC)C(c1ccc(N=Cc3ccc(N(C)C)cc3)cc1)N(C(=S)Nc1cc(Cl)ccc1Cl)CC2 (stereo unspecified) | inactive | – | – |
| C=CC(C)(C)N1c2ccccc2[C@]2(O)C[C@@H]3C(=O)N4/C=C\C(C)(C)c5[nH]c6ccccc6c5/C=C\4C(=O)N3[C@H]12 | inactive | – | – |
| O=c1oc2ccccc2c(O)c1C(c1ccc2c(c1)Cc1ccccc1-2)c1c(O)c2ccccc2oc1=O | – | > 200 | 46.8 µM |
| COc1ccc(N2C(=O)C3c4[nH]c5ccccc5c4C4CCCCCCCCCC4C3C2=O)cc1 (stereo unspecified) | – | > 200 | > 200 µM |
| C(=C/[PH+](c1ccccc1)c1ccccc1)/[PH+](c1ccccc1)c1ccccc1.C(=C/[PH+](c1ccccc1)c1ccccc1)/[PH+](c1ccccc1)c1ccccc1.C(=C/[PH+](c1ccccc1)c1ccccc1)/[PH+](c1ccccc1)c1ccccc1.[Pt] | – | > 5.25 | 3.24 µM |
| N#Cc1cnn2ccn(C3OC(COC(=O)c4ccccc4)C(OC(=O)c4ccccc4)C3OC(=O)c3ccccc3)c12 (stereo unspecified) | – | > 200 | > 200 µM |
| Cc1cc(C)nc(NS(=O)(=O)c2ccc(Nc3c4ccccc4nc4c(C(=O)NCCO)cccc34)cc2)n1 | – | > 200 | 7.76 µM |
| Nc1nc(NCC2(CO)CC(CCc3ccccc3)C2)cc(=O)[nH]1 (stereo unspecified) | – | > 200 | 64.6 µM |

| Structure (SMILES) | outcome | EC50 [µM] | IC50 |
| --- | --- | --- | --- |
| CCOC(=O)N/N=C(/N)Cc1ccccc1 | – | > 200 | > 200 µM |
| COc1ccc(OC)c(/C=C/C(=O)C(C)(C)C)c1 | – | > 105 | 19.1 µM |
| Cc1ccc(NC(=O)CC2SC(=Nc3ccc(Cl)cc3)NC2=O)cc1C (stereo unspecified) | – | > 51.3 | > 51.3 µM |
| O=C1CC2C(C1Nc1ccccc1)C1C(=Nc3ccccc3)C(Nc3ccccc3)=CC1N2c1ccccc1 (stereo unspecified) | – | > 10.2 | > 10.2 µM |
| Cc1[nH]n(-c2nc3c(c(=O)[nH]2)CCC3)c(=O)c1CCO | – | > 200 | 182 µM |
| CCOC(=O)c1[nH]c(Br)c(-c2ccc(Br)cc2)c1Br | – | > 2 | 0.912 µM |
| O=c1[nH]c(=O)n2c3c1ncn3CC=CC2 | – | > 35.5 | 17 µM |
| Cc1cc2ncn(C3CCCCO3)c2cc1C (stereo unspecified) | – | > 200 | > 200 µM |
| CC1=Nc2ccc([N+](=O)[O-])cc2N=C(C)C1 | – | > 200 | > 200 µM and 126 µM |
| O=C(Cn1cc(-c2ccccc2)nn1)NC1CCCCC1 | – | > 200 | > 200 µM |
| Cc1ccc(NC(=O)CC2Sc3ccccc3NC2=O)c(C)c1 (stereo unspecified) | – | > 79.4 | 38.9 µM |
| O=c1[nH]c2cc(Cl)ccc2nc1/C(=N\O)C(O)c1ccc([N+](=O)[O-])cc1 (stereo unspecified) | inactive | – | – |
| COC(=O)C1=CC(=O)C(C(=O)Nc2ccc(OC)cc2)C(c2ccccc2)O1 (stereo unspecified) | – | > 7.08 | > 7.08 µM |
| O=[N+]([O-])c1cc([N+](=O)[O-])c(C(Cl)C(Cl)c2ccccc2)cc1C(Cl)C(Cl)c1ccccc1 (stereo unspecified) | – | > 5.25 | > 5.25 µM |
| O=C1C2=C(CCCCC2)C2CCCCC12O (stereo unspecified) | – | > 200 | > 200 µM |
| O=C1/C(=C\c2cccc(Oc3ccccc3)c2)SC(c2ccccc2)N1c1cccc(Cl)c1 (stereo unspecified) | – | > 200 | 16.2 µM |
| S=C(NN1CCOCC1)SSC(=S)NN1CCOCC1 | – | > 20 | 0.933 µM |
| COC(=O)/C=C/c1ccc2c(c1)CC1(Cc3ccccc3C1)C2 | – | > 200 | > 200 µM |
| O=C(N=Nc1cccc(Cl)c1)NNc1cccc(Cl)c1 | – | > 200 | 15.5 µM |
| CN(C)CCCCNc1c2c(nc3c(Cl)cccc13)CCC2 | – | > 794 | 16.6 µM |
| NC(=S)Nc1[nH]c(=S)nc2[nH]ccc12 | – | > 91.2 | 83.2 µM |
| Cc1ccc(N=Nc2c(N)nn3cc4c(nc23)CCC4)cc1 | – | > 200 | > 200 µM |

| Structure (SMILES) | outcome | EC50 [µM] | IC50 |
| --- | --- | --- | --- |
| CC12SC3(C)SC(C)(S1)SC(C)(S2)S3 | – | > 44.7 | 33.1 µM |
| CC(=O)N1CCC2(c3ccccc3N(C(C)=O)C2c2ccc(O)cc2)C1C(=O)O (stereo unspecified) | inactive | – | – |
| OC1[C@@H]2[C@@H](O)CCCN2C[C@@H](O)[C@H]1O (stereo partly specified) | – | > 200 | > 200 µM |
| Cn1cnc2[nH]c(=O)n(OS(=O)(=O)c3ccccc3)c(=O)c21 | – | > 195 | 151 µM |
| CCOC(=O)C1(O)N=C(c2ccccc2)c2ccccc2-n2cccc21 (stereo unspecified) | – | > 200 | > 200 µM |
| COc1c(NC(=O)CC(C)=O)[c]([Hg][O]C(C)=O)c(OC)c(Cl)[c]1[Hg][O]C(C)=O | – | > 0.692 | > 0.692 µM |
| C/C=C1\CC2C(=O)CCC2C2c3ccccc3OC12 (stereo unspecified) | – | > 200 | > 200 µM |
| CC(C)=CCC/C(=C/CC/C(C)=C/CCc1ccoc1)C(=O)O | – | > 295 | 107 µM |
| CC1OC(OCC2OC(Oc3c(-c4ccc(O)cc4)oc4cc(OC5OC(C)C(O)C(O)C5O)cc(O)c4c3=O)C(O)C(O)C2O)C(O)C(O)C1O (stereo unspecified) | active | – | – |
| COc1cc(NC=O)c2c(c1)SC(C)C(=O)N2 (stereo unspecified) | – | 141 | > 200 µM |
| CNC(=S)/C(C#N)=C(\N)N1CCCC1 | – | > 200 | > 200 µM |
| COc1cccc2c1OC1c3ccccc3OCC1(O)C2 (stereo unspecified) | inactive | – | – |
| CCOC(=O)CCNC(=O)Sc1ccccc1C(=O)NCCC(N)=O | – | 1.2 | 110 µM |
| C#Cc1cccc(NC(=O)/C=C\C(=O)O)c1 | – | > 832 | 537 µM |
| CN(C)CCNc1ncnc2nc(-c3ccc4ccccc4c3)[nH]c12 | – | > 200 | > 200 µM |
| CCc1cccc(C)c1N1C(=O)C(=O)C(c2nc3ccccc3o2)/C(=N/NC(=S)NN)C1=O (stereo unspecified) | inactive | – | – |
| COC(=O)NC12CC3CC(CC(F)(C3)C1)C2 | – | > 575 | 145 µM |
| C=C[C@@H](C)[C@@H](O)c1c(O)c2c(c3c(CCC)cc(=O)oc13)OC(C)(C)C=C2 | – | > 200 | 10.7 µM |
| N#CC(NNC(=O)c1ccccc1O)c1cccc(O)c1 (stereo unspecified) | – | > 6.31 | 0.562 µM |
| CC1(C)C=N[N+]2(C)C3C=CC(CC3)C12 (stereo unspecified) | inactive | – | – |
| CC1=CCC[C@@H]2C1(C)CCC(C)[C@@]2(C)CC1=CC(=O)C=CC1=O (stereo partly specified) | – | > 50.1 | 11.5 µM |
| COc1cccc(CCNC(=O)Cc2ccccc2CCO)c1 | – | > 200 | > 200 µM |
